Experimental data reported in patent US20250032624A1, “SMALL MOLECULE DEGRADATION METHODS FOR TREATING ALS/FTD” (University of Florida Research Foundation, Incorporated, priority 2021, published 2025).

How the values were obtained:
[1] = tested on: r(G4C2)^exp-containing intron 1 of C9orf72; experiment: C9orf72 transcript RT-qPCR in c9ALS/FTD patient-derived LCLs; format: cell-based, human; conditions: 500 nM
Method: (§1) Measuring Levels of C9orf72 and C9orf72 Variants by RT-qPCR. LCLs and iPSCs were seeded in 6-well plates (˜10^6 cells in 2 mL of Basal medium) and incubated overnight at 37° C. with 5% CO2. LCLs were then treated with compound for 4 days without media changes; patient-derived iPSCs were seeded at ˜80% confluency and treated, as described above. Treatment with either a G4C2-ASO or Control-ASO (100 nM) was used as a control. ASO transfection was achieved using Lipofectamine RNAiMax (Life Technologies), following the manufacturer's protocol. After 4 days of treatment (with either compound or ASO), total RNA was extracted using the Quick-RNA Miniprep Kit (Zymo Research). RNA was quantified via Nanodrop and ˜1 μg of total RNA was reverse transcribed using qScript (Quantbio), according to the manufacturer's guidelines. RT-qPCR was performed on a QuantStudio™ Real-Time PCR Instrument (Applied Biosystems) using Power SYBR Green Master Mix (Applied Biosystems). Expression levels of mRNAs were normalized to GAPDH. See Table 2 for a list of primers used.

[2] = tested on: transcripts that contain shorter, non-pathogenic r(G4C2) repeats; experiment: RT-qPCR of eight transcripts with shorter, non-pathogenic r(G4C2) repeats in C9orf72 iPSCs; format: cell-based, human; conditions: repeat length 2-4, RT-qPCR
Method: as §1

[3] = tested on: r(G4C2)^exp-containing C9orf72 transcript; experiment: C9orf72 variants by RT-qPCR in brain of +/+PWR500 BAC mice; format: in vivo, mouse; conditions: 3 weeks
Method: A total of 20 age- and gender-matched mice (12 +/+PWR500 [5 Male and 7 Female] and 8 WT [4 Male and 4 Female]), ranging from 18-21 weeks old were used in therapeutic efficacy studies (Table 4). Mice were treated with a single bolus injection of 33 nmol of compound 2 formulated in 1% (v/v) DMSO/99% water, administered by an intracerebroventricular injection (ICV). Three weeks post injection, mice were euthanized, and tissue was harvested for study.
Postmortem brain tissue was harvested and sliced along the sagittal plane at the midline. The left hemisphere was frozen for RNA and protein analysis. Frozen brain tissue was homogenized in 300 μL Tris-EDTA buffer with a 1:5 w/v ratio of 2× Protease and Phosphatase Inhibitors. RNA was extracted from half of the homogenized tissue solution (150 μL) using Triazol LS (added at a 1:3 ratio to the homogenized tissue). The Triazol/tissue solution was centrifuged for 15 minutes at 16,000 rpm and the supernatant was collected. An equal volume of 100% ethanol was added to the supernatant, and RNA was purified using the Direct-zol RNA Kit (Zymo Research) per the manufacturer's protocol. RT-qPCR was then performed as described above. Expression levels of mRNAs were normalized to mouse β-actin.

canonical translation = experiment: Canonical translation (mCherry) in transfected HEK293T cells; format: cell-based
Method: FIG. 8A is a schematic of co-transfection of a No ATG-d(G4C2)66-GFP (SEQ ID NO: 45) plasmid and an ATG-mCherry plasmid into HEK293T cells allows for RAN translation to be measured based on the GFP signal. The mCherry signal measures canonical translation. […] Error bars represent SD.
HEK293T cells were cultured according to the methods described above. After reaching ˜80% confluency, HEK293T cells were batch-transfected, according to the manufacturer's protocol, in 100 mm dishes using the Lipofectamine 3000 transfection system (Thermo Fischer) for 5 hours with […] of a plasmid encoding r(G4C2)66-no ATG-nano-luciferase and 1 μg of a plasmid encoding SV40-Firefly luciferase (Life Technologies). Cells were seeded into a 384-well plate and incubated overnight. Compounds were treated in <0.1% DMSO final concentration for 24 hours. RAN and canonical translation were measured using a Dual-Luciferase® Reporter Assay System (Promega) following the manufacturer's protocol. Experiments were performed as biological triplicates (n=3). […] in untransfected cells were measured to determine the background signal.

C9orf72 intron 1 = experiment: C9orf72 transcript RT-qPCR in LCLs from healthy donors; format: cell-based, human
Method: as §1

[4] = single ICV injection of 10 mg/kg, total brain tissue

## CCOC(=O)C1=C(Nc2ccccc2)S/C(=C\c2ccc(OCCOCCOCCOCCNC(=O)CCCOc3ccc4c(c3)c3cc5c(C(=O)N[C@H](C)CN(C)C)nccc5c(C)c3n4C)c(O)c2)C1=O [ALS Compound Formula I]
[1]
  reduction in C9orf72 intron 1 abundance: ~50%
[2]
  short r(G4C2) repeat-containing transcripts significantly reduced (of eight): only one transcript, SOCS1, was significantly reduced
[3]; [4]
  decrease of C9orf72 intron 1 abundance: ~25%
  decrease of exon 2-3 abundance: ~20%
[3]; single ICV injection
  exon 1b abundance: unchanged
  exon 1b to exon 2 junction (human C9orf72 abundance): unchanged
Canonical translation
  effect on mCherry signal (canonical translation): no effect
C9orf72 intron 1
  effect on C9orf72 intron 1 levels: did not reduce
